US9187458B2, “Cyanoquinoline derivatives” (Tianjin Hemay Bio-Tech Co., LTD., priority 2010, dated 2015)

Assays:
BT-474 cells = assay: BT-474 Cell Growth Inhibition Test (SRB Assay); type: cell-based, human; settings: 70 h incubation; for IC50 / inhibition at 1 µM: Homo sapiens; for inhibition at 1 µM: BT-474, 70 h, read-out: Growth Inhibition Ratio (%)
Outline: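 Human breast tumour BT-474 cells (1×10^5/ml seeding, overnight) exposed to compound 70 h at 37 °C, 5% CO2; TCA-fixed, SRB-stained, dye dissolved in 10 mM Tris and OD read at 570 nm. Inhibition ratio = (PC−n)/(PC−NC)×100%; IC50 is the concentration giving 50% inhibition, from fitted curves.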

A549 cells = assay: A549 Cell Growth Inhibition Test (MTT Assay); type: cell-based; settings: Homo sapiens, 72 h incubation
Method: A549 Cell Growth Inhibition Test (MTT Assay)
1. Cell strains: […] (human lung caner cell strains);
Culture medium: 90% F12K+10% FBS;
(§1) 1. A plate (10 cm) of cells in logarithmic growth phase normally cultured was collected;
2. The culture solution was sucked out. Tthe plate was washed with 5 ml of PBS 1-2 times;
(§2) 3. PBS was sucked out. 2 ml of 0.25% pancreatin was added to infiltrate the cells for 1 min;
4. The pancreatin was sucked out. The culture plate was placed in an incubator. Digestion was carried out for about 2 min at 37° C.;
(§3) 5. 4 ml of complete culture solution was added to the culture plate to stop the digestion. The cells were carefully scoured with micropipette (1 ml) to give a uniform cell suspension. The suspension was implanted into a 96-well cell culture plate by 2500 cells/100 μl per well. The culture plate was incubated overnight under 5% CO2 at 37° C. In day 2, 100 μl of culture solution comprising a compound was added in each well, and further incubated for 72 h under 5% CO2 at 37° C.
(§4) 6. The culture solution was sucked out;
(§5) 7. 100 μl of serum-free culture solution containing 0.5 mg/ml MTT was added in each well, and incubated for 3 h;
(§6) 8. The culture solution was carefully sucked out;
(§7) 9. 100 μl of DMSO was added in each well and vibrated to dissolve;
(§8) 10. OD values were determined at 490 nM.
(§9) 1. Calculation of Relative Inhibition Ratio The inhibition ratio of a compound on cell growth=(PC−n)/(PC−NC)×100%
(§10) IC50: Concentration of a compound where inhibition ratio was 50%. IC50 values were fitted with Origin7.5.

LoVo cells = assay: LoVo Cell Growth Inhibition Test (MTT Assay); type: cell-based; settings: Homo sapiens, 72 h incubation
Method: LoVo Cell Growth Inhibition Test (MTT Assay)
1. Cell strains: LoVo (human intestinal cancer cell strains);
as §1
2. The culture solution was sucked out. The plate was washed with 5 ml of PBS 1-2 times;
as §2
4. The pancreatin was sucked out. The culture plate was placed in an incubator. Digestion was carried out for about 4 min at 37° C.;
as §3, with “added in” for “added to”, “by 3000-4000” for “by 2500”, “added into” for “added in”
as §4
7. 100 μl of serum-free culture solution containing 0.5 mg/ml MTT was added in each well, and incubated for 4 h;
as §6, §7, §8, §9, §10

NCI-N87 cells = assay: NCI-N87 Cell Growth Inhibition Test (MTT Assay); type: cell-based; settings: Homo sapiens, 72 h incubation
Method: NCI-N87 Cell Growth Inhibition Test (MTT Assay)
1. Cell strains: NCI-N87 (human gastric carcinoma cell strains);
as §1
2. The culture solution was sucked out. The plate was washed wtih 5 ml of PBS 1-2 times;
3. PBS was sucked out. 1.5 ml of 0.25% pancreatin was added to infiltrate the cells for 1 min;
4. The pancreatin was sucked out. The culture plate was placed in an incubator. Digestion was carried out for about 12 min at 37° C.;
as §3, with “5. 4.5 ml of” for “5. 4 ml of”, “cell culture disc by 17000” for “cell culture plate by 2500”, “disc by 17000 cells/100 μl” for “plate by 2500 cells/100 μl”
as §4, §5, §6
9. 100 μl of DMSO was added in each welland vibrated to dissolve;
as §8
1. Calculation of Rrelative Inhibition Ratio The inhibition ratio of a compound on cell growth=(PC−n)/(PC−NC)×100%
as §10

| SMILES | IC50 (BT-474 cells) [nM] | Growth Inhibition Ratio (%) (BT-474 cells; compound 1 μM) | IC50 (A549 cells) [nM] | IC50 (LoVo cells) [nM] | IC50 (NCI-N87 cells) [nM] | inhibition at 1 µM (BT-474 cells; compound 1 μM) [%] |
| --- | --- | --- | --- | --- | --- | --- |
| C#Cc1cccc(Nc2c(C#N)cnc3cc(OC4CCOC4)c(NC(=O)/C=C/CN(C)C)cc23)c1 (stereo not shown) [Example 5, (E)-N-(3-CYANO-4-(3-ETHYNYLPHENYLAMINO)-7-(TETRAHYDROFURAN-3-YL-OXY)QUINOLIN-6-YL)-4-(DIMETHYLAMINO)-BUT-2-ENAMIDE] | 41 | 85 | 1300 | 8570 | 22 |  |
| CN(C)C/C=C/C(=O)Nc1cc2c(Nc3ccc(OCc4ccccc4C#N)c(Cl)c3)c(C#N)cnc2cc1OC1CCOC1 (stereo not shown) [Example 13, (E)-N-(4-(4-(2-CYANOBENZYLOXY)-3-CHLOROPHENYLAMINO)-3-CYANO-7-(TETRAHYDROFURAN-3-YL-OXY)QUINOLIN-6-YL)-4-(DIMETHYLAMINO)-BUT-2-ENAMIDE] | 11 |  | 1100 | 2000 | 4.4 | 75 |
| C#Cc1cccc(Nc2c(C#N)cnc3cc(O[C@H]4CCOC4)c(NC(=O)/C=C/CN4CCCCC4)cc23)c1 [Example 144, (S,E)-N-(3-CYANO-4-(3-ETHYNYLPHENYLAMINO)-7-(TETRAHYDROFURAN-3-YL-OXY)QUINOLIN-6-YL)-4-(PIPERIDIN-1-YL)-BUT-2-ENAMIDE] | 129 |  | 1000 | 3300 | 98 |  |
| Cc1ccc(COc2ccc(Nc3c(C#N)cnc4cc(OC5CCOC5)c(NC(=O)/C=C/CN(C)C)cc34)cc2Cl)cc1 (stereo not shown) [Example 19, (E)-N-(4-(4-(4-METHYLBENZYLOXY)-3-CHLOROPHENYLAMINO)-3-CYANO-7-(TETRAHYDROFURAN-3-YL-OXY)QUINOLIN-6-YL)-4-(DIMETHYLAMINO)-BUT-2-ENAMIDE] | 32 |  | 2000 | 2000 | 32 |  |
| CN(C)C/C=C/C(=O)Nc1cc2c(Nc3ccc(OCc4cccc(C#N)c4)c(Cl)c3)c(C#N)cnc2cc1OC1CCOC1 (stereo not shown) [Example 15, (E)-N-(4-(4-(3-CYANOBENZYLOXY)-3-CHLOROPHENYLAMINO)-3-CYANO-7-(TETRAHYDROFURAN-3-YL-OXY)QUINOLIN-6-YL)-4-(DIMETHYLAMINO)-BUT-2-ENAMIDE] | 8.1 |  | 3900 | 2200 | 7.1 | 71 |
| CN(C)C/C=C/C(=O)Nc1cc2c(Nc3ccc(OCc4ccccn4)c(Cl)c3)c(C#N)cnc2cc1OC1CCOC1 (stereo not shown) [Example 21, (E)-N-(4-(3-CHLORO-4-(PYRIDIN-2-YL-METHOXY)PHENYLAMINO)-3-CYANO-7-(TETRAHYDROFURAN-3-YL-OXY)QUINOLIN-6-YL)-4-(DIMETHYLAMINO)-BUT-2-ENAMIDE] | 3.6 |  | 900 | 2000 | 6.8 |  |
| CN(C)C/C=C/C(=O)Nc1cc2c(Nc3ccc(OCc4cccc(Cl)c4)c(Cl)c3)c(C#N)cnc2cc1OC1CCOC1 (stereo not shown) [Example 11, (E)-N-(4-(4-(3-CHLOROBENZYLOXY)-3-CHLOROPHENYLAMINO)-3-CYANO-7-(TETRAHYDROFURAN-3-YL-OXY)QUINOLIN-6-YL)-4-(DIMETHYLAMINO)-BUT-2-ENAMIDE] | 7.9 |  | 1600 | 1600 | 11 |  |
| C#Cc1cccc(Nc2c(C#N)cnc3cc(O[C@H]4CCOC4)c(NC(=O)/C=C/CN4CCOCC4)cc23)c1 [Example 145, (S,E)-N-(3-CYANO-4-(3-ETHYNYLPHENYLAMINO)-7-(TETRAHYDROFURAN-3-YL-OXY)QUINOLIN-6-YL)-4-(MORPHOLIN-4-YL)-BUT-2-ENAMIDE] | 654 |  | 6700 |  | 346 | 75 |
| C#Cc1cccc(Nc2c(C#N)cnc3cc(O[C@@H]4CCOC4)c(NC(=O)/C=C/CN(C)C)cc23)c1 [Example 141, (R,E)-N-(3-CYANO-4-(3-ETHYNYLPHENYLAMINO)-7-(TETRAHYDROFURAN-3-YL-OXY)QUINOLIN-6-YL)-4-(DIMETHYLAMINO)-BUT-2-ENAMIDE] | 96 |  | 800 | 7630 | 32 | 89 |
| C#Cc1cccc(Nc2c(C#N)cnc3cc(O[C@H]4CCOC4)c(NC(=O)/C=C/CNC(C)(C)C)cc23)c1 [Example 146, (S,E)-N-(3-CYANO-4-(3-ETHYNYLPHENYLAMINO)-7-(TETRAHYDROFURAN-3-YL-OXY)QUINOLIN-6-YL)-4-(TERT-BUTYLAIMINO)-BUT-2-ENAMIDE] | 236 |  | 7000 |  | 189 |  |
| CN(C)C/C=C/C(=O)Nc1cc2c(Nc3ccc(F)c(Cl)c3)c(C#N)cnc2cc1O[C@H]1CCOC1 [Example 142, (S,E)-N-(4-(3-CHLORO-4-FLUOROPHENYLAMINO)-3-CYANO-7-(TETRAHYDROFURAN-3-YL-OXY)QUINOLIN-6-YL)-4-(DIMETHYLAMINO)-BUT-2-ENAMIDE] | 133 |  | 1500 | 8830 | 75 | 89 |
| CN(C)C/C=C/C(=O)Nc1cc2c(Nc3ccc(OCc4ccccc4)c(Cl)c3)c(C#N)cnc2cc1OC1CCOC1 (stereo not shown) [Example 12, (E)-N-(4-(4-(BENZYLOXY)-3-CHLOROPHENYLAMINO)-3-CYANO-7-(TETRAHYDROFURAN-3-YL-OXY)QUINOLIN-6-YL)-4-(DIMETHYLAMINO)-BUT-2-ENAMIDE] | 8 |  | 2000 | 2000 | 6.1 |  |
| C#Cc1cccc(Nc2c(C#N)cnc3cc(O[C@H]4CCOC4)c(NC(=O)/C=C/CN(C)C)cc23)c1 [Example 140, (S,E)-N-(3-CYANO-4-(3-ETHYNYLPHENYLAMINO)-7-(TETRAHYDROFURAN-3-YL-OXY)QUINOLIN-6-YL)-4-(DIMETHYLAMINO)-BUT-2-ENAMIDE] | 33 |  | 1600 | 8800 | 15 | 85 |
| N#Cc1cnc2cc(O[C@H]3CCOC3)c(NC(=O)/C=C/CN3CCCCC3)cc2c1Nc1ccc(OCc2ccccn2)c(Cl)c1 [Example 151, (S,E)-N-(4-(3-CHLORO-4-(PYRIDIN-2-YL-METHOXY)PHENYLAMINO)-3-CYANO-7-(TETRAHYDROFURAN-3-YL-OXY)QUINOLIN-6-YL)-4-(PIPERIDIN-1-YL)-BUT-2-ENAMIDE] | 6.5 |  | 3700 | 1900 | 16 | 80 |
| N#Cc1cnc2cc(O[C@H]3CCOC3)c(NC(=O)/C=C/CN3CCOCC3)cc2c1Nc1ccc(OCc2ccccn2)c(Cl)c1 [Example 152, (S,E)-N-(4-(3-CHLORO-4-(PYRIDIN-2-YL-METHOXY)PHENYLAMINO)-3-CYANO-7-(TETRAHYDROFURAN-3-YL-OXY)QUINOLIN-6-YL)-4-(MORPHOLIN-4-YL)-BUT-2-ENAMIDE] | 10.4 |  |  | 6600 | 20 | 78 |
| C#Cc1cccc(Nc2c(C#N)cnc3cc(O[C@H]4CCOC4)c(NC(=O)/C=C/CN(C)Cc4ccccc4)cc23)c1 [Example 149, (S,E)-N-(3-CYANO-4-(3-ETHYNYLPHENYLAMINO)-7-(TETRAHYDROFURAN-3-YL-OXY)QUINOLIN-6-YL)-4-(N-METHYLBENZYLAMINO)-BUT-2-ENAMIDE] | 212 |  |  | 2300 | 111 | 79 |
